Laboratory results taken from patent US10807986B2, “Fused pyrimidine compound or salt thereof” (TAIHO PHARMACEUTICAL CO., LTD., priority 2016, dated 2020).

Assay: Evaluation of stability in liver microsome
Conditions: mouse liver microsome 0.25 mg/mL, test compound 1 μM, 37° C., 30 minutes
Procedure: Solutions of the test compounds in DMSO/acetonitrile (the final concentration of each test compound was 1 μM, the final concentration of DMSO was 0.01%, and the final concentration of acetonitrile was 1%) were individually added to a liver microsome mixture solution (mouse liver microsome with a final concentration of 0.25 mg/mL, a potassium phosphate buffer with a final concentration of 100 mM, and magnesium chloride with a final concentration of 3 mM), and each mixture was pre-incubated at 37° C. for 5 minutes. […] After incubation at 37° C. for 30 minutes, a double amount of ethanol was added thereto to terminate the reaction, thereby obtaining post-reaction samples. A double amount of ethanol was added to each of the remaining mixture solutions, and a NADPH-generating system was further added thereto, thereby obtaining pre-reaction samples. The pre-reaction samples and post-reaction samples were centrifuged at 2000×g, and their supernatant was filtered through a glass filter. Each filtrate was then introduced into LC-MS/MS, and MS/MS peaks of the test compounds were detected. From the ratio of the post-reaction MS/MS peak to the pre-reaction MS/MS peak of the test compounds, the percentage of the remaining test compounds (remaining %) was calculated.

Row | SMILES | Remaining (%)
1 | [2H]C([2H])([2H])OCc1ccc(NC(=O)c2cn(C(C)(C)C)c3ncnc(N)c23)cc1 [Example 35, 4-amino-7-(tert-butyl)-N-(4-((methoxy-d3)-methyl)phenyl)-7H-pyrrolo[2,3-d]pyrimidine-5-carboxamide] | 58
2 | COCc1ccc(NC(=O)c2c(C#Cc3ccccc3OC)n(C3(C)CC3)c3ncnc(N)c23)cc1 [Example 113, 4-amino-N-(4-(methoxymethyl)phenyl)-6-((2-methoxyphenyl)ethynyl)-7-(1-methylcyclopropyl)-7H-pyrrolo[2,3-d]pyrimidine-5-carboxamide] | 79
3 | COCc1ccc(NC(=O)c2c(Br)n(C3(C)CC3)c3ncnc(N)c23)cc1 [Example 55, 4-amino-6-bromo-N-[4-(methoxymethyl)phenyl]-7-(1-methylcyclopropyl)-7H-pyrrolo[2,3-d]pyrimidine-5-carboxamide] | 56
4 | COCc1ccc(NC(=O)c2c(C#Cc3cccc(F)c3)n(C3(C)CC3)c3ncnc(N)c23)cc1 [Example 130, 4-amino-6-((3-fluorophenyl)ethynyl)-N-(4-(methoxymethyl)phenyl)-7-(1-methylcyclopropyl)-7H-pyrrolo[2,3-d]pyrimidine-5-carboxamide] | 84
5 | CCOc1c(C(=O)Nc2ccc(COC)cc2)c2c(N)ncnc2n1C1(C)CC1 [Example 127, 4-amino-6-ethoxy-N-(4-(methoxymethyl)phenyl)-7-(1-methylcyclopropyl)-7H-pyrrolo[2,3-d]pyrimidine-5-carboxamide] | 70
6 | CCn1cc(C#Cc2c(C(=O)Nc3ccc(COC)cc3)c3c(N)ncnc3n2C2(C)CC2)cn1 [Example 118, 4-amino-6-((1-ethyl-1H-pyrazol-4-yl)ethynyl)-N-(4-(methoxymethyl)phenyl)-7-(1-methylcyclopropyl)-7H-pyrrolo[2,3-d]pyrimidine-5-carboxamide] | 73
7 | CC(C)(C)n1cc(C(=O)Nc2ccc(-c3cc[nH]n3)cc2)c2c(N)ncnc21 [Example 80, N-(4-(1H-pyrazol-3-yl)phenyl)-4-amino-7-(tert-butyl)-7H-pyrrolo[2,3-d]pyrimidine-5-carboxamide] | 50
8 | COCc1ccc(NC(=O)c2c(C#CCN3CCOCC3)n(C3(C)CC3)c3ncnc(N)c23)cc1F [Example 206, 4-amino-N-(3-fluoro-4-(methoxymethyl)phenyl)-7-(1-methylcyclopropyl)-6-(3-morpholinoprop-1-yn-1-yl)-7H-pyrrolo[2,3-d]pyrimidine-5-carboxamide] | 77
9 | COCc1ccc(NC(=O)c2c(C#Cc3ccc4c(c3)NCCO4)n(C3(C)CC3)c3ncnc(N)c23)cc1 [Example 158, 4-amino-6-((3,4-dihydro-2H-benzo[b][1,4]oxazin-6-yl)ethynyl)-N-(4-(methoxymethyl)phenyl)-7-(1-methylcyclopropyl)-7H-pyrrolo[2,3-d]pyrimidine-5-carboxamide] | 85
10 | COCc1ccc(NC(=O)c2c(-c3ccc(N4CCN(C)CC4)cc3)n(C3(C)CC3)c3ncnc(N)c23)cc1 [Example 171, 4-amino-N-(4-(methoxymethyl)phenyl)-7-(1-methylcyclopropyl)-6-(4-(4-methylpiperazin-1-yl)phenyl)-7H-pyrrolo[2,3-d]pyrimidine-5-carboxamide] | 77
11 | COCc1ccc(NC(=O)c2c(C#Cc3cccs3)n(C3(C)CC3)c3ncnc(N)c23)cc1 [Example 119, 4-amino-N-(4-(methoxymethyl)phenyl)-7-(1-methylcyclopropyl)-6-(thiophen-2-ylethynyl)-7H-pyrrolo[2,3-d]pyrimidine-5-carboxamide] | 70
12 | COCc1ccc(NC(=O)c2c(/C=C/CO)n(C3(C)CC3)c3ncnc(N)c23)cc1 [Example 109, (E)-4-amino-6-(3-hydroxyprop-1-en-1-yl)-N-(4-(methoxymethyl)phenyl)-7-(1-methylcyclopropyl)-7H-pyrrolo[2,3-d]pyrimidine-5-carboxamide] | 68
13 | COCc1ccc(NC(=O)c2c(OC[C@H]3CCCO3)n(C3(C)CC3)c3ncnc(N)c23)cc1 [Example 89, (R)-4-amino-N-[4-(methoxymethyl)phenyl]-7-(1-methylcyclopropyl)-6-((tetrahydrofuran-2-yl)methoxy)-7H-pyrrolo[2,3-d]pyrimidine-5-carboxamide] | 69
14 | COCc1ccc(NC(=O)c2c(C(C)O)n(C3(C)CC3)c3ncnc(N)c23)cc1 (stereo not drawn) [Example 204, 4-amino-6-(1-hydroxyethyl)-N-(4-(methoxymethyl)phenyl)-7-(1-methylcyclopropyl)-7H-pyrrolo[2,3-d]pyrimidine-5-carboxamide] | 83
15 | COCc1ccc(NC(=O)c2c(-c3cncnc3)n(C3(C)CC3)c3ncnc(N)c23)cc1 [Example 194, 4-amino-N-(4-(methoxymethyl)phenyl)-7-(1-methylcyclopropyl)-6-(pyrimidin-5-yl)-7H-pyrrolo[2,3-d]pyrimidine-5-carboxamide] | 67
16 | COCc1ccc(NC(=O)c2c(OCC(C)(C)OC)n(C3(C)CC3)c3ncnc(N)c23)cc1 [Example 137, 4-amino-6-(2-methoxy-2-methylpropoxy)-N-(4-(methoxymethyl)phenyl)-7-(1-methylcyclopropyl)-7H-pyrrolo[2,3-d]pyrimidine-5-carboxamide] | 53
17 | COCc1ccc(NC(=O)c2c(C#CCN3CC[S+]([O-])CC3)n(C3(C)CC3)c3ncnc(N)c23)cc1 [Example 178, 4-amino-N-(4-(methoxymethyl)phenyl)-7-(1-methylcyclopropyl)-6-(3-(1-oxidethiomorpholino)prop-1-yn-1-yl)-7H-pyrrolo[2,3-d]pyrimidine-5-carboxamide] | 88
18 | COCc1ccc(NC(=O)c2c(C#CCC3NC(=O)NC3=O)n(C3(C)CC3)c3ncnc(N)c23)cc1 (stereo not drawn) [Example 156, 4-amino-6-(3-(2,5-dioxoimidazolidin-4-yl)prop-1-yn-1-yl)-N-(4-(methoxymethyl)phenyl)-7-(1-methylcyclopropyl)-7H-pyrrolo[2,3-d]pyrimidine-5-carboxamide] | 67
19 | COCc1ccc(NC(=O)c2c(C#Cc3cnc4[nH]ccc4c3)n(C3(C)CC3)c3ncnc(N)c23)cc1 [Example 128, 6-((1H-pyrrolo[2,3-b]pyridin-5-yl)ethynyl)-4-amino-N-(4-(methoxymethyl)phenyl)-7-(1-methylcyclopropyl)-7H-pyrrolo[2,3-d]pyrimidine-5-carboxamide] | 82
20 | COCc1ccc(NC(=O)c2c(OC)n(C3(C)CC3)c3ncnc(N)c23)cc1 [Example 57, 4-amino-6-methoxy-N-[4-(methoxymethyl)phenyl]-7-(1-methylcyclopropyl)-7H-pyrrolo[2,3-d]pyrimidine-5-carboxamide] | 86
21 | COCc1ccc(NC(=O)c2c(C#Cc3c(C)noc3C)n(C3(C)CC3)c3ncnc(N)c23)cc1 [Example 184, 4-amino-6-((3,5-dimethylisoxazol-4-yl)ethynyl)-N-(4-(methoxymethyl)phenyl)-7-(1-methylcyclopropyl)-7H-pyrrolo[2,3-d]pyrimidine-5-carboxamide] | 58
22 | COCc1ccc(NC(=O)c2c(C#CC3(O)CCCC3)n(C3(C)CC3)c3ncnc(N)c23)cc1 [Example 131, 4-amino-6-((1-hydroxycyclopentyl)ethynyl)-N-(4-(methoxymethyl)phenyl)-7-(1-methylcyclopropyl)-7H-pyrrolo[2,3-d]pyrimidine-5-carboxamide] | 55
23 | COCc1ccc(NC(=O)c2c(C#Cc3csc(C)n3)n(C3(C)CC3)c3ncnc(N)c23)cc1 [Example 126, 4-amino-N-(4-(methoxymethyl)phenyl)-7-(1-methylcyclopropyl)-6-((2-methylthiazol-4-yl)ethynyl)-7H-pyrrolo[2,3-d]pyrimidine-5-carboxamide] | 69
24 | COCc1ccc(NC(=O)c2c(C#CC3(O)CCOCC3)n(C3(C)CC3)c3ncnc(N)c23)cc1 [Example 185, 4-amino-6-((4-hydroxytetrahydro-2H-pyran4-yl)ethynyl)-N-(4-(methoxymethyl)phenyl)-7-(1-methylcyclopropyl)-7H-pyrrolo[2,3-d]pyrimidine-5-carboxamide] | 80
25 | COCc1ccc(NC(=O)c2c(C(C)=O)n(C3(C)CC3)c3ncnc(N)c23)cc1 [Example 64, 6-acetyl-4-amino-N-(4-(methoxymethyl)phenyl)-7-(1-methylcyclopropyl)-7H-pyrrolo[2,3-d]pyrimidine-5-carboxamide] | 89
26 | COCc1ccc(NC(=O)c2c(C#CCN3CCN(C)CC3)n(C3(C)CC3)c3ncnc(N)c23)cc1 [Example 132, 4-amino-N-(4-(methoxymethyl)phenyl)-7-(1-methylcyclopropyl)-6-(3-(4-methylpiperazin-1-yl)prop-1-yn-1-yl)-7H-pyrrolo[2,3-d]pyrimidine-5-carboxamide] | 77
27 | COCc1ccc(NC(=O)c2c(C#Cc3cccc(NCc4ccncc4)c3)n(C3(C)CC3)c3ncnc(N)c23)cc1 [Example 122, 4-amino-N-(4-(methoxymethyl)phenyl)-7-(1-methylcyclopropyl)-6-((3-((pyridin-4-ylmethyl)amino)phenyl)ethynyl)-7H-pyrrolo[2,3-d]pyrimidine-5-carboxamide] | 62
28 | COCc1ccc(NC(=O)c2c(C#CC(C)(C)O)n(C3(C)CC3)c3ncnc(N)c23)cc1 [Example 174, 4-amino-6-(3-hydroxy-3-methylbut-1-yn-1-yl)-N-(4-(methoxymethyl)phenyl)-7-(1-methylcyclopropyl)-7H-pyrrolo[2,3-d]pyrimidine-5-carboxamide] | 72
29 | COCc1ccc(NC(=O)c2c(C#CCC3(O)COC3)n(C3(C)CC3)c3ncnc(N)c23)cc1 [Example 125, 4-amino-6-(3-(3-hydroxyoxetan-3-yl)prop-1-yn-1-yl)-N-(4-(methoxymethyl)phenyl)-7-(1-methylcyclopropyl)-7H-pyrrolo[2,3-d]pyrimidine-5-carboxamide] | 74
30 | COCc1ccc(NC(=O)c2c(C#CCN3CCCCC3)n(C3(C)CC3)c3ncnc(N)c23)cc1 [Example 105, 4-amino-N-[4-(methoxymethyl)phenyl]-7-(1-methylcyclopropyl)-6-(3-(piperidin-1-yl)prop-1-yn-1-yl)-7H-pyrrolo[2,3-d]pyrimidine-5-carboxamide] | 52
